# According to paper PMC8911775, “Phosphodiester Silybin Dimers Powerful Radical Scavengers: A Antiproliferative Activity on Different Cancer Cell Lines” (Molecules, 2022):
# Assays:
# [1] = Hydroxyl radical (HO•) scavenging, second-order rate constant by laser flash photolysis (thiocyanate competition); details: calculated in H2O; mean of three replicates
# From the text: Biologically, the hydroxyl radical (HO^●) is widely believed to be generated when hydrogen peroxide reacts with Fe(II) (Fenton reaction). The putative HO^●∙is an extremely reactive and short-lived species that can damage DNA, proteins, and lipids. However, the Fe(II)/H2O2 mixture has disadvantages in a scavenging assay because many flavonoids as well as flavonolignans are also metal chelators. When the sample is mixed with Fe(II), it may alter the activity of Fe(II) by chelation. As a result, it is impossible to distinguish if the antioxidants are simply good metal chelators or HO^● scavengers. In our study the second order rate constants for HO^● reactions with silybin dimers (6aa, 6bb and 6ab) have been determined by pulse photolysis method using hydrogen peroxide (H2O2) as ROS sources. […] This could be explained considering that in dimers 9′′-9′′ the 3, 5 and 4′′ OH functions, responsible for the radical scavenger activity, are not involved in any bond. […]
# The reactivity constant between new silybin dimers and hydroxyl radical has been determined using Laser flash Photolysis system. […]
# The formation of di-thiocyanate radical anion (SCN2^●−) through reactivity of photogenerated hydroxyl radicals (HO^●) with thiocyanate (SCN^- in the presence of hydrogen peroxide. The second-order rate constants between HO^● and dimers were determined following reactions (R1–R4 in the Section 2.2) and using the following equation:(1) Abs0/Abs=1+kHO^•,DimerII[Dimer]/kHO^•,SCN^−II[SCN^−] where Abs0 and Abs are the absorption of SCN2•− at 475 nm in absence and presence of dimers; kHO^•,SCN^−II and kHO^•,DimerII are the second-order rate constants of HO^● with thiocyanate and dimers at different concentrations. […] Means were compared by one way analysis of variance (ANOVA) and significant differences were assessed by post hoc tests of least significant. […]
# Jurkat = assay: Antiproliferative activity on Jurkat cells (CCK-8); assay type: cell-based; details: Homo sapiens, 48 h incubation
# Method: (§1) Human T lymphoblastoid (Jurkat) and human metastatic melanoma (WM266) cell lines were grown in RPMI medium supplemented with heat inactivated 10% fetal bovine serum (FBS), 2.5 mM glutamine, 100 U/mL penicillin, and 100 μg/mL streptomycin (Euroclone). Human cervix adenocarcinoma cell line (HeLa), human lung carcinoma (A549), human pancreatic cancer (PANC), human glioblastoma (U87) normal human fibroblasts (HDF) were grown in DMEM supplemented with 10% fetal bovine serum (FBS), 1% glutamine, 100 U/mL penicillin and 100 μg/mL streptomycin (Euroclone, Milano, Italy). Cells were maintained in humidified air containing 5% CO2, at 37 °C [30].
# (§2) Cells were plated at density of 10,000 cells/well for Jurkat, 2000/well for WM266 and HDF, 1200 cells/well for HeLa, and 1000 for PANC, U87 and A375 in 96-well microplates (Thermofisher, Waltham, MA, USA). After 24 h incubation, cells were treated with increasing concentrations of synthetized compounds previously solubilized in DMSO at 50 mM concentration. Cell proliferation was determined by using (2-(2-methoxy-4-nitrophenyl)-3-(4-nitrophenyl)-5-(2,4-disulfophenyl)-2H-tetrazolium, monosodium salt (CCK-8, Sigma Aldrich) for Jurkat cells, and the 3-(4,5-dimethylthiazol-2-yl)-2,5- diphenyltetrazolium bromide assay (MTT, Sigma Aldrich, Sigma Aldrich, St. Louis, MO, USA)) for HeLa, WM266, PANC, U87 and HDF cells, after 48 h treatment. Plates were then analyzed by using a microplate reader (Enspire, Perkin Elmer Italia Spa, Milano, Italy) at 450 (CCK-8) or 570 nm (MTT).
# (§3) The results are presented as the percentage of proliferating cells respect to the control (vehicle treated cells) and are expressed as means ± SE of, at least, three independent experiments performed in triplicate. The statistical analysis was performed using Student’s t-test, unpaired, two-sided, p < 0.05 was considered significant. The IC50 values were calculated by GraphPad Prism software.
# HDF = assay: Antiproliferative activity on normal human fibroblasts HDF; assay type: cell-based; details: 48 h incubation
# Method: as §1, §2, §3
# [2] = Apoptosis assay, annexin V-FITC/PI double staining, flow cytometry; assay type: cell-based, Human; details: human, Jurkat cells, 37 °C, Figure 4, read-out: viable cells (lower left quadrant)
# Method: (§4) For this purpose, Jurkat was incubated with the molecules at a concentration of 200 μM, and flow cytometric analysis with annexin V/propidium iodine (PI) double staining was carried out.
# (§5) The apoptosis analysis was performed on Jurkat cells seeded at 2.5 × 10^5 cells/mL in a 6-well plate. The cells were incubated in the absence or presence of 200 μM concentration of examined compounds at 37 °C and apoptosis induction was analysed after 48 h by double staining with annexin V/FITC and propidium iodide (PI) (eBioscience, Affimetrix Santa Clara, CA, USA). The cells undergoing apoptosis were quantified using a flow cytometer equipped with a 488 nm argon laser (Becton Dickinson, Franklin Lakes, NJ, USA) by Cell Quest software. All FACS analyses were performed at least 2 times.
# Jurkat cells = assay: as above; assay type: cell-based, Human; details: 200 μM, 48 h
# Method: as §4, §5
# [3] = set-up: method as in PMID 28800072; details: estimated, relative to silibinin; cited from earlier work
IC50 (Jurkat) [µM],Compound,"Second order rate constant kHO•,X II [1]",IC50 (HDF) [µM],"viability at 48 h, 200 µM [2] [%]",apoptotic cells (early and advanced) with respect to the control (Jurkat cells),reactivity towards HO• with respect to silibinin [3]
59 ± 19.9,COc1cc([C@@H]2Oc3cc([C@H]4Oc5cc(O)cc(O)c5C(=O)[C@@H]4O)ccc3O[C@H]2COP(=O)(O)OC[C@@H]2Oc3ccc([C@H]4Oc5cc(O)cc(O)c5C(=O)[C@@H]4O)cc3O[C@H]2c2ccc(O)c(OC)c2)ccc1O [Compound 6bb],1.01 ± 0.16 × 10^10 M^−1·s^−1,> 200,84.8,4%,
,COc1cc(C2Oc3cc([C@H]4Oc5cc(O)cc(O)c5C(=O)[C@@H]4O)ccc3OC2COP(=O)(O)OCC2Oc3ccc([C@H]4Oc5cc(O)cc(O)c5C(=O)[C@@H]4O)cc3OC2c2ccc(O)c(OC)c2)ccc1O (stereo partly shown) [9′′-9′′],,,,,about two times
36 ± 14.3,"COc1cc([C@@H]2Oc3cc([C@H]4Oc5cc(O)cc(O)c5C(=O)[C@@H]4O)ccc3O[C@H]2CO)ccc1O [Compound 1b, silybin B, reference compound]",,172 ± 39,17.1,70%,
46.7 ± 14.1,"COc1cc([C@H]2Oc3cc([C@H]4Oc5cc(O)cc(O)c5C(=O)[C@@H]4O)ccc3O[C@@H]2CO)ccc1O [Compound 1a, silybin A, reference compound]",,199 ± 34.5,20.2,70%,
64 ± 10.8,COc1cc([C@H]2Oc3cc([C@H]4Oc5cc(O)cc(O)c5C(=O)[C@@H]4O)ccc3O[C@@H]2COP(=O)(O)OC[C@@H]2Oc3ccc([C@H]4Oc5cc(O)cc(O)c5C(=O)[C@@H]4O)cc3O[C@H]2c2ccc(O)c(OC)c2)ccc1O [Compound 6ab],1.48 ± 0.09 × 10^10 M^−1·s^−1,> 200,63.6,about 25%,
,COc1cc(C2Oc3cc([C@H]4Oc5cc(O)cc(O)c5C(=O)[C@@H]4OP(=O)(O)OCC4Oc5ccc([C@H]6Oc7cc(O)cc(O)c7C(=O)[C@@H]6O)cc5OC4c4ccc(O)c(OC)c4)ccc3OC2CO)ccc1O (stereo partly shown) [3-9′′],,,,,about two times
71 ± 15.5,COc1cc([C@H]2Oc3cc([C@H]4Oc5cc(O)cc(O)c5C(=O)[C@@H]4O)ccc3O[C@@H]2COP(=O)(O)OC[C@H]2Oc3ccc([C@H]4Oc5cc(O)cc(O)c5C(=O)[C@@H]4O)cc3O[C@@H]2c2ccc(O)c(OC)c2)ccc1O [Compound 6aa],8.63 ± 1.35 × 10^9 M^−1·s^−1,> 200,73,20%,
